{
  "source": "patent EP3456336B1",
  "about": "“A CELERY SEED AND SOPHORA FLOWER BUD EXTRACT AND MEDICAL USE THEREOF” (Beijing Tianheng Junwei Pharmaceutical Tech Co., Ltd, priority 2016, dated 2017)",
  "format_in_all_cases": "in vivo, SD rats",
  "details_in_all_cases": "Benzbromarone group 20 mg/kg",
  "key": {"guanine deaminase (GuDa)": {"system": "guanine deaminase (GuDa)", "assay": "Serum guanine deaminase activity in hyperuricemia model rats (single enzyme reagent method)", "protocol": "SD rats were stratified by weight using random number table method, and each layer was divided into a normal group (10 rats), a fructose modeling group (50 rats) and a purine modeling group (24 rats) using random number table method. Tap water was administered to the normal group; a 10% (w/v) fructose solution was administered to the fructose modeling group for modeling; and for the purine modeling group, tap water was administered for drinking, 500 mg/kg of hypoxanthine + 100 mg/kg of nicotinic acid was administered by gastric perfusion according to body weight once a day, and the volume of perfusion was 10 ml/kg. The food and water consumption of rats were recorded daily, the body weights were weighed every 7 days, and blood was taken by shearing the tail tip on the next day of weighing. […] Among them, 0.5% CMC-Na was administered to the normal group and the model group by gastric perfusion, and respective drugs dissolved in 0.5% CMC-Na were administered to the other administration groups by gastric perfusion. The perfusion was performed once every morning. […] Table 1 Gastric perfusion dosages of rats in each group Every 7 days during the experiment, the body weights of the animals were weighed and recorded, blood was taken from the tail vein, and serum was separated by centrifugation. The uric acid (UA), urea nitrogen (BUN), creatinine (CRE), xanthine oxidase (XOD), adenosine deaminase (ADA) and guanine deaminase (GuDa) in serum were detected. On day 35 of the experiment, the 24-hour urine of the rats was collected, the urine volume was measured, the pH value was determined, and the urinary uric acid level, urinary creatinine level, and urinary urea nitrogen level were detected. […] In the presence of an electron acceptor and a developer, a purple red conjugate was produced, and the activity of xanthine oxidase could be calculated according to the amount of the latter produced. […] Therefore, the activity of serum adenosine deaminase could be calculated. […]"}, "hyperuricemia model [1]": {"system": "hyperuricemia model", "assay": "Serum urea nitrogen (urease method) and serum creatinine (picric acid method) in hyperuricemia model rats", "protocol": "(§1) SD rats were stratified by weight using random number table method, and each layer was divided into a normal group (10 rats), a fructose modeling group (50 rats) and a purine modeling group (24 rats) using random number table method. Tap water was administered to the normal group; a 10% (w/v) fructose solution was administered to the fructose modeling group for modeling; and for the purine modeling group, tap water was administered for drinking, 500 mg/kg of hypoxanthine + 100 mg/kg of nicotinic acid was administered by gastric perfusion according to body weight once a day, and the volume of perfusion was 10 ml/kg. The food and water consumption of rats were recorded daily, the body weights were weighed every 7 days, and blood was taken by shearing the tail tip on the next day of weighing. […] Among them, 0.5% CMC-Na was administered to the normal group and the model group by gastric perfusion, and respective drugs dissolved in 0.5% CMC-Na were administered to the other administration groups by gastric perfusion. The perfusion was performed once every morning. […] During the experiment, since there was no significant difference in blood uric acid level between the purine modeling group and the normal group from beginning to end, the modeling of the hyperuricemia model in rats was not successful, therefore, the rats were not further grouped. Table 1 Gastric perfusion dosages of rats in each group Every 7 days during the experiment, the body weights of the animals were weighed and recorded, blood was taken from the tail vein, and serum was separated by centrifugation. The uric acid (UA), urea nitrogen (BUN), creatinine (CRE), xanthine oxidase (XOD), adenosine deaminase (ADA) and guanine deaminase (GuDa) in serum were detected. On day 35 of the experiment, the 24-hour urine of the rats was collected, the urine volume was measured, the pH value was determined, and the urinary uric acid level, urinary creatinine level, and urinary urea nitrogen level were detected. After the experiment was terminated, the rats were sacrificed, and the right kidneys were taken and weighed. The specific determination method of each index was as follows. • ① Detecting serum uric acid and urinary uric acid by uricase colorimetric method: uric acid was catalyzed by uricase to produce allantoin and hydrogen peroxide (H2O2); […] A serum or urine sample was taken. […] Jaffe reaction occurred between the creatinine in the supernatant of serum from which protein was removed or the creatinine in clear urine and picric acid to produce an orange adduct. A serum or urine sample was taken. […] A serum or urine sample was taken. […] In the presence of an electron acceptor and a developer, a purple red conjugate was produced, and the activity of xanthine oxidase could be calculated according to the amount of the latter produced. A serum sample was taken. According to the operating instruction of Xanthine Oxidase Assay Kit, under the conditions of a cuvette the light path of 1 cm and a wavelength of 530 nm, double distilled water was used for zero calibration; the absorbance was determined by a UV spectrophotometer, and the activity of xanthine oxidase was obtained. • ⑤ Detecting adenosine deaminase (ADA) by enzymatic colorimetric method: adenine riboside was catalyzed by adenosine deaminase to hydrolyze and produce hypoxanthine riboside and ammonia, and the produced ammonia was developed. Therefore, the activity of serum adenosine deaminase could be calculated. A serum sample was taken. […]"}, "[2]": {"assay": "Body weight of rats during the 35-day hyperuricemia experiment", "protocol": "(§2) SD rats were stratified by weight using random number table method, and each layer was divided into a normal group (10 rats), a fructose modeling group (50 rats) and a purine modeling group (24 rats) using random number table method. Tap water was administered to the normal group; a 10% (w/v) fructose solution was administered to the fructose modeling group for modeling; and for the purine modeling group, tap water was administered for drinking, 500 mg/kg of hypoxanthine + 100 mg/kg of nicotinic acid was administered by gastric perfusion according to body weight once a day, and the volume of perfusion was 10 ml/kg. The food and water consumption of rats were recorded daily, the body weights were weighed every 7 days, and blood was taken by shearing the tail tip on the next day of weighing.\nAmong them, 0.5% CMC-Na was administered to the normal group and the model group by gastric perfusion, and respective drugs dissolved in 0.5% CMC-Na were administered to the other administration groups by gastric perfusion. The perfusion was performed once every morning. The dosages of administration were as follows: the dosage of benzbromarone was 20 mg/kg, the large-, medium- and small-dosages of the extract of the present disclosure were 1.9 g/kg, 0.95 g/kg, and 0.475 g/kg, respectively, the volume of administration was 15 ml/kg, and the experiment lasted for 35 days in total. During the experiment, since there was no significant difference in blood uric acid level between the purine modeling group and the normal group from beginning to end, the modeling of the hyperuricemia model in rats was not successful, therefore, the rats were not further grouped. Table 1 Gastric perfusion dosages of rats in each group\n(§3) Every 7 days during the experiment, the body weights of the animals were weighed and recorded, blood was taken from the tail vein, and serum was separated by centrifugation. The uric acid (UA), urea nitrogen (BUN), creatinine (CRE), xanthine oxidase (XOD), adenosine deaminase (ADA) and guanine deaminase (GuDa) in serum were detected. On day 35 of the experiment, the 24-hour urine of the rats was collected, the urine volume was measured, the pH value was determined, and the urinary uric acid level, urinary creatinine level, and urinary urea nitrogen level were detected. After the experiment was terminated, the rats were sacrificed, and the right kidneys were taken and weighed."}, "hyperuricemia model [3]": {"system": "hyperuricemia model", "assay": "24-hour urine indices on day 35 in hyperuricemia model rats (volume, pH, uric acid, creatinine, urea nitrogen, clearances)", "parameters": "Uric acid clearance / Creatinine clearance: unit not given here", "protocol": "as §1"}, "[4]": {"system": "adenosine deaminase (ADA)", "assay": "Serum adenosine deaminase activity in hyperuricemia model rats (enzymatic colorimetric method)", "protocol": "(§4) SD rats were stratified by weight using random number table method, and each layer was divided into a normal group (10 rats), a fructose modeling group (50 rats) and a purine modeling group (24 rats) using random number table method. Tap water was administered to the normal group; a 10% (w/v) fructose solution was administered to the fructose modeling group for modeling; and for the purine modeling group, tap water was administered for drinking, 500 mg/kg of hypoxanthine + 100 mg/kg of nicotinic acid was administered by gastric perfusion according to body weight once a day, and the volume of perfusion was 10 ml/kg. The food and water consumption of rats were recorded daily, the body weights were weighed every 7 days, and blood was taken by shearing the tail tip on the next day of weighing. […] Table 1 Gastric perfusion dosages of rats in each group Every 7 days during the experiment, the body weights of the animals were weighed and recorded, blood was taken from the tail vein, and serum was separated by centrifugation. The uric acid (UA), urea nitrogen (BUN), creatinine (CRE), xanthine oxidase (XOD), adenosine deaminase (ADA) and guanine deaminase (GuDa) in serum were detected. […] In the presence of an electron acceptor and a developer, a purple red conjugate was produced, and the activity of xanthine oxidase could be calculated according to the amount of the latter produced. […]"}, "[5]": {"assay": "Right kidney weight of rats on day 35", "protocol": "as §2, with “weighing. […]” for “weighing.”\nas §3, with “After the experiment was terminated, the rats were sacrificed, and the right kidneys were taken and weighed.” left out"}, "xanthine oxidase (XOD)": {"system": "xanthine oxidase (XOD)", "assay": "Serum xanthine oxidase activity in hyperuricemia model rats (enzymatic colorimetric method)", "protocol": "as §4"}, "hyperuricemia model [6]": {"system": "hyperuricemia model", "assay": "Uric acid reducing effect: serum uric acid in high-fructose hyperuricemia model rats (uricase colorimetric method)", "protocol": "as §1"}},
  "data": [
    {"smiles": "CCc1oc2ccccc2c1C(=O)c1cc(Br)c(O)c(Br)c1", "note": "[Benzbromarone, benzbromarone]", "values": [
      {"measurement": "serum guanine deaminase activity", "setting": "guanine deaminase (GuDa); Day 21", "value": "29.46 ± 3.57^Δ U/L"},
      {"measurement": "serum guanine deaminase activity", "setting": "guanine deaminase (GuDa); Day 21, listed as benzbromarone", "value": "significant decrease"},
      {"measurement": "serum guanine deaminase activity", "setting": "guanine deaminase (GuDa); Day 35", "value": "11.46 ± 4.83", "unit": "U/L"},
      {"measurement": "Serum creatinine", "setting": "hyperuricemia model [1]; Day 21", "value": "99.21 ± 17.50", "unit": "µmol/L"},
      {"measurement": "Serum urea nitrogen", "setting": "hyperuricemia model [1]; Day 21", "value": "5.73 ± 1.02", "unit": "mM"},
      {"measurement": "Serum creatinine", "setting": "hyperuricemia model [1]; Day 35", "value": "74.54±25.76^Δ µmol/L"},
      {"measurement": "Serum urea nitrogen", "setting": "hyperuricemia model [1]; Day 35", "value": "6.27 ± 1.62", "unit": "mM"},
      {"measurement": "Serum creatinine", "setting": "hyperuricemia model [1]; Day 35, listed as benzbromarone", "value": "significant decrease"},
      {"measurement": "body weight", "setting": "[2]; Day 0, modeling period", "value": "243.40 ± 7.63", "unit": "g"},
      {"measurement": "body weight", "setting": "[2]; Day 7, modeling period", "value": "325.46 ± 15.10", "unit": "g"},
      {"measurement": "body weight", "setting": "[2]; Day 14, modeling period", "value": "365.30 ± 20.19", "unit": "g"},
      {"measurement": "body weight", "setting": "[2]; Day 21, administration period", "value": "391.83 ± 19.39", "unit": "g"},
      {"measurement": "body weight", "setting": "[2]; Day 28, administration period", "value": "425.86 ± 22.33", "unit": "g"},
      {"measurement": "body weight", "setting": "[2]; Day 35, administration period", "value": "433.88 ± 27.07", "unit": "g"},
      {"measurement": "Creatinine clearance", "setting": "hyperuricemia model [3]", "value": "1.67 ± 1.18"},
      {"measurement": "Uric acid clearance", "setting": "hyperuricemia model [3]", "value": "0.155 ± 0.047"},
      {"measurement": "24-hour Urine volume", "setting": "hyperuricemia model [3]; Day 35", "value": "117.80 ± 31.17", "unit": "mL"},
      {"measurement": "urinary pH", "setting": "hyperuricemia model [3]; Day 35", "value": "6.70 ± 0.71"},
      {"measurement": "UBUN (concentration of urinary urea nitrogen)", "setting": "hyperuricemia model [3]; day 35", "value": "156.36 ± 133.40", "unit": "mmol/L"},
      {"measurement": "UCR (concentration of urinary creatinine)", "setting": "hyperuricemia model [3]; day 35", "value": "1256.25 ± 332.40", "unit": "µmol/L"},
      {"measurement": "UUA (concentration of urinary uric acid)", "setting": "hyperuricemia model [3]; day 35", "value": "173.57 ± 56.65", "unit": "µmol/L"},
      {"measurement": "serum adenosine deaminase level", "setting": "[4]; Day 21", "value": "54.22 ± 8.72", "unit": "U/ml"},
      {"measurement": "serum adenosine deaminase level", "setting": "[4]; Day 35", "value": "97.69 ± 15.32", "unit": "U/ml"},
      {"measurement": "right kidney Weight", "setting": "[5]", "value": "1.43 ± 0.10^ΔΔ g"},
      {"measurement": "serum xanthine oxidase level", "setting": "xanthine oxidase (XOD); Day 21", "value": "28.66 ± 3.75", "unit": "U/L"},
      {"measurement": "serum xanthine oxidase level", "setting": "xanthine oxidase (XOD); Day 35", "value": "20.61 ± 2.67", "unit": "U/L"},
      {"measurement": "serum uric acid level", "setting": "hyperuricemia model [6]; Day 0, modeling period", "value": "75.83 ± 38.77", "unit": "µmol/L"},
      {"measurement": "serum uric acid level", "setting": "hyperuricemia model [6]; Day 7, modeling period", "value": "94.75 ± 25.26", "unit": "µmol/L"},
      {"measurement": "serum uric acid level", "setting": "hyperuricemia model [6]; Day 14, modeling period", "value": "65.57±27.48^Δ µmol/L"},
      {"measurement": "serum uric acid level", "setting": "hyperuricemia model [6]; Day 14, modeling period, listed as benzbromarone", "value": "significant decrease"},
      {"measurement": "serum uric acid level", "setting": "hyperuricemia model [6]; Day 21, administration period", "value": "68.45 ± 22.20", "unit": "µmol/L"},
      {"measurement": "serum uric acid level", "setting": "hyperuricemia model [6]; Day 28, administration period", "value": "79.65±24.68^Δ µmol/L"},
      {"measurement": "serum uric acid level", "setting": "hyperuricemia model [6]; Day 28, administration period, listed as benzbromarone", "value": "significant decrease"},
      {"measurement": "serum uric acid level", "setting": "hyperuricemia model [6]; Day 35, administration period", "value": "85.66±18.37^Δ µmol/L"},
      {"measurement": "serum uric acid level", "setting": "hyperuricemia model [6]; Day 35, administration period, listed as benzbromarone", "value": "significant decrease"}
    ]}
  ]
}
